Experimental data from patent US11034719B2, “7-dehydrocholesterol derivatives and methods using same” (University of Rochester, priority 2014, dated 2021).

How the values were obtained:
[1] = tested on: various cancer cell lines; assay: viability of a panel of cancer cell lines (CellTiter 96 MTS); type: cell-based; conditions: FIGS. 11A-11C
Procedure: Viability of cell lines (ECC-1, AN3CA, RL-95-2, SKOV-3, PC-3, MCF-7, SMSKCNR and TCL-1) before and after MeTC7 treatment was determined by the CellTiter 96® AQueous One Solution Assay (Promega Corp, Madison, Wisc.) following the manufacturer's recommendations. This colorimetric assay is based on the ability of mitochondria to reduce a substrate [MTS, 3-(4,5-dimethylthiazol-2-yl)-5-(3-carboxymethoxy phenyl)-2-(4-sulfophenyl)-2H-tetrazolium] into a soluble formazan product quantified by measuring the absorbance at 490 nm. The resulting OD is directly proportional to the number of living cells. Briefly, cells (5×10^3/well) were plated into 96 well flat bottom plates (Corning, Inc., Coming, N.Y.) before treatment with various drugs or vehicle (DMSO) as indicated. Following incubation at 37° C. in a cell culture incubator for 20 h MTS reagent was added at a 1:10 dilution to the medium. The samples were incubated for an additional 4 h before absorbance was measured at 490 nm in an ELISA plate reader (Thermo Labsystems, Waltham, Mass.). Experiments were performed in triplicates; data are expressed as the mean of the triplicate determinations (X±SD) of a representative experiment in % of absorbance by samples with untreated cells [=100%]. Similarly, the cell viability of HEPG2 and HEK293 cells was determined except that the drug concentrations were used in the logarithmic values.

A2058 cells xenograft = assay: melanoma (A2058) xenograft in nude mice; type: in vivo; conditions: 10 mg/kg bwt i.p., 5× week, 15 days
Procedure: (§1) Animal experiments were carried out in the animal facilities of Rhode Island Hospital (RIH), Rhode Island, USA with strict adherence to the guidelines of the Animal Welfare Committee of Rhode Island Hospital (RIH) and Women and Infants Hospital of Rhode Island (Laboratory Animal Protection Approval: A3922-01). Four to six week-old immunodeficient nude mice (NU/ NU; strain code 088/homozygous) (Charles River Laboratories, Wilmington, Mass.) were maintained at a temperature of ˜22° C. and a relative humidity of ˜55%, with a 12 h light/dark cycle. A2058 cells were cultured to 80% confluence, washed in PBS twice, harvested by trypsination, pooled in complete medium, washed in PBS twice, and 1×10^6 cells/inoculate were suspended in 0.1 ml of matrigel and inoculated subcutaneously in the flank of mice. Mice with developing tumors after two weeks were randomly assigned to experimental groups. Mice were treated intraperitoneally every day with either vehicle control (control group; 7 animals) or MeTC7 (10 mg/kg bwt, 5× week) for 15 days. Mice were weighed and tumor size were measured using a digital caliper every 5th days. The percent of animals with tumor size less than 15 mm was calculated by Kaplan-Meier Analysis.

SKOV-3 cells [2] = assay: inhibition of lipid synthesis in SKOV-3 cells (HPLC of extracted lipids); type: cell-based; conditions: 500 nM, serum free
Procedure: Approximately 3 million cells in serum free conditions were treated with Compound (3) (500 nM). Media was removed, and cells were washed with PBST, trypisinized and collected after centrifugation at 1,000 rpm. The cell pellet was washed with PBST and treated with methanolic HCl for 1 hour. The methanol was removed, and cells were suspended in water and extracted with chloroform. The collected chloroform layer was evaporated with a gentle nitrogen stream, and the residue was analyzed by HPLC.

ECC-1 cells = assay: MTS cell viability assay, ECC-1; type: cell-based; conditions: FIG. 3
Procedure: ECC-1 cells were seeded (10,000 cells/well) in complete RPMI (supplemented with 10% fetal bovine serum and 1% antibiotic) and allowed to adhere over night. Media was replaced with a fresh complete RPMI media containing varying concentrations of Compound (3). DMSO was used as control. At suitable intervals (varying from 1 minute to 4 days), the media was replaced again with complete RPMI (supplemented with 10% fetal bovine serum and 1% antibiotic) containing MTS dye (Invitrogen Inc) and incubated for period (varying from 10 min to 1 day). The absorbance of the media was read at varying wavelengths, advantageously at […] in an ELISA reader.
(§2) Viability of cell lines (ECC-1, AN3CA, RL-95-2, SKOV-3, PC-3, MCF-7, SMSKCNR and TCL-1) before and after MeTC7 treatment was determined by the CellTiter 96® AQueous One Solution Assay (Promega Corp, Madison, Wisc.) following the manufacturer's recommendations. This colorimetric assay is based on the ability of mitochondria to reduce a substrate [MTS, 3-(4,5-dimethylthiazol-2-yl)-5-(3-carboxymethoxy phenyl)-2-(4-sulfophenyl)-2H-tetrazolium] into a soluble formazan product quantified by measuring the absorbance at 490 nm. The resulting OD is directly proportional to the number of living cells. […] The samples were incubated for an additional 4 h before absorbance was measured at 490 nm in an ELISA plate reader (Thermo Labsystems, Waltham, Mass.). […]

[3] = tested on: rat aorta rings (microcapillary formation); assay: ex vivo rat aorta ring assay; conditions: 24 hour treatment, FIG. 9
Procedure: Rat aorta were harvested from the freshly euthanized naïve rats, cleaned and cut into fine rings and placed on matrigel beds prepared 30 min earlier in a 6 well plate. […] The media was replaced with fresh supplemented media and allowed the incubation for next 48 hours, thus affording a strong network of the microcappilary network. […] The phase contrast images were recorded on a pre-cooled inverted NICON microscope.

[4] = tested on: panel of cancer cell lines; assay: ascorbic acid pretreatment, MTS viability in a panel of cancer cell lines; type: cell-based; conditions: ascorbic acid pretreatment 3 hours
Procedure: Cell lines derived from ovarian cancer, endometrial cancer, breast cancer, prostate cancer and neuroblastoma (5,000 cells/well) were seeded in complete DMEM (supplemented with 10% fetal bovine serum and 1% antibiotic) and allowed to adhere over night. Cells were pretreated with […] of acrorbic acid in 50 μL DMEM media for 3 hours. To the existing media was added DMEM media containing varying concentrations of 2× concentration of Compound (3). DMSO was used as control. At suitable intervals (varying from 1 minute to 4 days), the media was replaced again with complete RPMI (supplemented with 10% fetal bovine serum and 1% antibiotic) containing MTS dye (Invitrogen Inc) and incubated for period (varying from 10 min to 1 day). The absorbance of the media was read at varying wavelengths, advantageously at 492 nm, in an ELISA reader.

SKOV-3 cells [5] = assay: MTS cell viability assay, SKOV-3; type: cell-based; conditions: FIG. 1 / FIG. 2
Procedure: SKOV-3 cells were seeded (5,000 cells/well) in complete DMEM (supplemented with 10% fetal bovine serum and 1% antibiotic) and allowed to adhere overnight. Media was replaced with a fresh complete DMEM media containing varying concentrations of the drugs of interest. DMSO was used as control. At a suitable interval (varying from 1 minute to 4 days), the media was replaced again with complete RPMI (supplemented with 10% fetal bovine serum and 1% antibiotic) containing MTS dye (Invitrogen Inc.) and incubated for a period varying from 10 minutes to 1 day. The absorbance of the media was read at varying wavelengths, advantageously at […] in an ELISA reader.
as §2, with “nm.” for “nm. The resulting OD is directly proportional to the number of living cells.”

VDR-LBD = target: T1, VDR-LBD (Homo sapiens, UniProt P11473)
T1 sequence (P11473 127-423 limits assumed): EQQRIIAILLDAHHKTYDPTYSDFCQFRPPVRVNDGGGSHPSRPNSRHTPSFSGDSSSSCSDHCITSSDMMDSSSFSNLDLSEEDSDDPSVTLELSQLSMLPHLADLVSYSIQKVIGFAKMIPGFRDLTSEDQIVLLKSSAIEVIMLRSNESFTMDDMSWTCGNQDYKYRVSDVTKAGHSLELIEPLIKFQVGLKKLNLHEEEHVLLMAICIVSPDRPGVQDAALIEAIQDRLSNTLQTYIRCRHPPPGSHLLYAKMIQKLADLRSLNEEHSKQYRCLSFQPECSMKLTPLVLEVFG
Description: VDR antagonists disrupt this interaction by a direct or allosteric mode of inhibition.

HUVEC cells = assay: wound healing (scratch) assay with HUVEC cells; type: cell-based; conditions: 500 nMoles, 24 hours
Procedure: A 24-well plate was coated with 100 µL of sterile 1% gelatin solution per well. After gelatin coating was hardened, about 100,000 HUVEC cells were seeded per well and allowed to grow to 100% confluence in EBM-2 media. A […] tip was then used to create a vertical scratch wound down the center of each well, and cells were washed once with fresh EBM-2 media. Cell monolayers were then imaged at a 0 h time point using light microscopy on an inverted microscope under sterile conditions. Wound areas were imaged again using light microscopy, and areas were demarcated on representative images.
Floating cells were removed and media was replaced with HUVEC cell media supplemented with vehicle or Compound (3) (500 nMoles) and incubated for 24 hours. The cells were imaged using a pre-cooled inverted NICON microscope (40×).

DAOY cells xenograft = assay: medulloblastoma (DAOY) xenograft in nude mice; type: in vivo; conditions: 10 mg/kg bwt i.p., 5× week, 15 days
Procedure: as §1, with “mice (NU/NU;” for “mice (NU/ NU;”, “cycle. DAOY” for “cycle. A2058”, “group; 6” for “group; 7”, “MeTC7 (n=5, 10” for “MeTC7 (10”, “days.” for “days. The percent of animals with tumor size less than 15 mm was calculated by Kaplan-Meier Analysis.”

[6] = tested on: SKOV-3 and OVCAR-8 ovarian cancer cells; assay: apoptosis detection (TUNEL, cytochrome-C release) in ovarian cancer cells; type: cell-based
Procedure: SKOV -3 and OVCAR-8 ovarian cancer cells (10,000 per well) were seeded in a 8 well slide chamber in DMEM complete media and allowed to incubate overnight. Cells were treated with complete media containing either vehicle or MeTC7 (500 nM) and incubated for 12 hours in a humidified incubator maintained at standard conditions. DNA fragmentation was detected using the DeadEndTM Fluorometric TUNEL System assay (Promega, Madison, Wisc.) according to the manufacturer's recommendations. Fluorescence of apoptotic cells (green; labeling of DNA nicks by fluorescein-12-dUTP) and of chromatin (red; staining of chromatin with propidium iodide) was detected by fluorescence microscopy with an inverted microscope (Nikon Eclipse TE2000-E) and a 10× objective. Four randomly chosen microscopic fields were captured. For the detection of the cytochrome-C release as a marker of the apoptosis, the cells were fixed in 5% cold formalin solution and cells were stained with cytochrome-C primary antibody (Santa Cruz Biotechnology, USA) and corresponding fluroescence linked secondary antibody. The images were recorded using an inverted microscope. At least five field were arbitrarily scoped.

SKOV-3 tumor xenographs = assay: SKOV-3 tumor xenograft in nude mice; type: in vivo
Procedure: The effects of exemplary compounds of the invention on the growth of SKOV-3 tumor xenographs in nude mice were investigated. Substantively, four- to six week-old immunodeficient nude mice (NU/NU; strain code 088/homozygous) (Charles River Laboratories, Wilmington, Mass.) were maintained at a temperature of 22±1° C. and a relative humidity of 55±5%, with a 12 h light/dark cycle. SKOV-3 cells were cultured to 80% confluence, washed in PBS twice, harvested by hypsination, pooled in complete medium, washed in PBS twice, and 2×10^6 cells/inoculate were suspended in 0.1 ml of matrigel and inoculated subcutaneously in the flank of mice. Mice with developing tumors after two weeks were randomly assigned to experimental groups. Compound (3) was prepared as a stock solution of 1 mM in 100% EtOH and diluted 1:40 in PBS for administration. […] Mice were weighed and tumor size caculated using a caliper every 5 days.
Four to six week-old immunodeficient nude mice (NU/NU; strain code 088/homozygous) (Charles River Laboratories, Wilmington, Mass.) were maintained at a temperature of −22° C. and a relative humidity of ˜55%, with a 12 h light/dark cycle. […]

## CC(C)CCC[C@@H](C)[C@H]1CC[C@H]2C34C=CC5(C[C@@H](OC(=O)CBr)CC[C@]5(C)[C@H]3CC[C@]12C)n1c(=O)n(C)c(=O)n14 (stereo partly shown) [Compound (3)]
[1]
  growth of cancer cell lines: block growth of various cancer cell lines
A2058 cells xenograft
  growth of BRAF mutant melanoma xenografts: reduce the growth of BRAF mutant melanoma xenografts in animals
A2058 cells xenograft; Kaplan-Meier
  survival of animals with melanoma xenografts: extend survival in these animals
SKOV-3 cells [2]
  lipids appearing at 10.06 minutes (HPLC): significantly reduced
ECC-1 cells
  cell viability of ECC-1 cells: reduction in cell viability
[3]
  capillary formation and outgrowth: inhibited capillary formation and outgrowth
[4]
  cytotoxic effects after ascorbic acid pretreatment: reduced the cytotoxic effects
SKOV-3 cells [5]
  cell viability of SKOV-3 cells: reduction in cell viability
VDR-LBD; FIGS. 10A-10F
  VDR antagonism, selectivity: selective Vitamin D nuclear receptor (VDR) antagonists
VDR-LBD; in the absence of calcitriol
  VDR agonism (coactivator recruitment): not a VDR agonist
HUVEC cells
  recovery of the scratched area: failed to recover and repopulate the scratched area
DAOY cells xenograft
  growth of medulloblastoma xenografts: reduce the growth of medulloblastoma xenografts in animals
[6]; 500 nM, 12 hours
  cytochrome-C release: abundant cytochrome-C release in the cytosol
[6]; FIGS. 11D-11E
  apoptosis: cause apoptosis
SKOV-3 tumor xenographs; 10 mg/kg bwt i.p. every other day, 40 days, FIG. 7
  tumor burden: reduces the tumor burden
SKOV-3 tumor xenographs; 10 mg/kg bwt i.p., 5× week, 31 days, FIG. 11F
  growth of ovarian cancer xenografts: reduce the growth of ovarian cancer xenografts in animals
